Measurements: publication PMC8746695, “Zinc-Chelating Compounds as Inhibitors of Human and Bacterial Zinc Metalloproteases” (Molecules, 2021)
Entries after “also recorded” stand apart in the source; their conditions may differ. Where two headings read alike, the source gives them in different places.

Legend:
[1] = target: T1, human MT1-MMP/MMP-14 (catalytic domain) (Homo sapiens, UniProt P50281); test: Inhibition of MMP-14, fluorescence quenched peptide substrate McaPLGL(Dpa)AR-NH2; type: biochemical; details: for effect of 100 μM compound on MMP-14 activity: pre-incubation 0-45 min; for Ki: substrate McaPLGL(Dpa)AR-NH2 4 µM, 30 min pre-incubation at room temperature, calculated from IC50, read-out: Ki ± s.d. MMP-14
T1 construct: human MT1-MMP/MMP-14 (catalytic domain); purchased Calbiochem (San Diego, CA, USA)
Description: (§1) McaPLGL(Dpa)AR-NH2 was used as a substrate for MMP-9 and MMP-14, while McaRPPGFSAFK(Dnp)-OH was used as substrate for ALN, PLN and TLN. The reaction velocities/initial rates (v) were determined at 37 °C, at an excitation wavelength of 320 nm and an emission wavelength of 405 nm with a slit width of 10 nm using either a Perkin Elmer LS 50 Luminescence spectrometer and the FL WinLab Software Package (Perkin Elmer) or a Clario Star microplate reader (CLARIOstar® BMG LABTECH).
(§2) The test compounds were dissolved in 100% DMSO giving a concentration of 10 mM. A fixed substrate concentration of 4.0 µM in a total volume of 100 µL 0.1 M Hepes pH 7.5, 10 mM CaCl2, 0.005% Brij-35 and 1.0% DMSO, were used in all assays, except for ALN where the substrate concentration was 5.0 µM. The fixed enzyme concentrations were as follows; 0.05 nM MMP-9, 1.0 nM MMP-14, 1.4 nM ALN, 0.5 nM PLN and 0.21 nM TLN. Time-dependent inhibitory experiments without and with 100 μM of testing compounds were performed as follows. Compounds were either pre-incubated with the proteases for 15, 30 and 45 min at room temperature and the enzymatic reaction was started by adding the substrate, or not pre-incubated, i.e., the reaction was started by adding the protease to the mixture of substrate and compound. Control tests without compound present were performed in the same way. The reaction was followed for 30 min at 37 °C.
(§3) Enzymes with and without inhibitor were pre-incubated for 30 min at room temperature, and initial rate assays were performed as described above. Assays were performed using a Clario Star microplate reader (CLARIOstar® BMG LABTECH). The IC50 values were calculated in Graph Pad Prism 5 using Equation (1):(1) vi/v0=1/(1+10^(pIC50−pI)) where vi is the enzyme activity in the presence of inhibitor, v0 the activity in the absence of inhibitor, pI = −log [Inhibitor] in M and pIC50 = −log IC50 in M. All experiments were performed in at least triplicate.

[2] = cited from earlier work
pseudolysin (PLN) = target: T2, pseudolysin (PLN) (Pseudomonas aeruginosa, UniProt P14756); test: Inhibition of pseudolysin (PLN), substrate McaRPPGFSAFK(Dnp)-OH; type: biochemical; details: for effect of 100 μM compound on PLN activity: pre-incubation 0-45 min
T2 construct: purchased Calbiochem (San Diego, CA, USA)
T2 sequence (P14756 198-498): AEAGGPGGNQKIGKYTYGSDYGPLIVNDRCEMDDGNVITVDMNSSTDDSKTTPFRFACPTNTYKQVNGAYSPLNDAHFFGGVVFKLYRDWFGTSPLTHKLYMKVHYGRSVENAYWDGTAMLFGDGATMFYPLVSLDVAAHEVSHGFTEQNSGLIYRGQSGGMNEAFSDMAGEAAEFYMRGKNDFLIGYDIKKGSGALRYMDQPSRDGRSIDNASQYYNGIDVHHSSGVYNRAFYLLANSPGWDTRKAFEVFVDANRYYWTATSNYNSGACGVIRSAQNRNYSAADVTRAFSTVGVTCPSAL
Description: as §1, §2, §3

thermolysin (TLN) = target: T3, thermolysin (TLN) (Bacillus thermoproteolyticus, UniProt P00800); test: Inhibition of thermolysin (TLN), substrate McaRPPGFSAFK(Dnp)-OH; type: biochemical; details: for Ki: substrate McaRPPGFSAFK(Dnp)-OH 4 µM, 30 min pre-incubation at room temperature, calculated from IC50, read-out: Ki ± s.d. TLN; for effect of 100 μM compound on TLN activity: pre-incubation 0-45 min
T3 construct: purchased Calbiochem (San Diego, CA, USA)
T3 sequence (P00800 233-548): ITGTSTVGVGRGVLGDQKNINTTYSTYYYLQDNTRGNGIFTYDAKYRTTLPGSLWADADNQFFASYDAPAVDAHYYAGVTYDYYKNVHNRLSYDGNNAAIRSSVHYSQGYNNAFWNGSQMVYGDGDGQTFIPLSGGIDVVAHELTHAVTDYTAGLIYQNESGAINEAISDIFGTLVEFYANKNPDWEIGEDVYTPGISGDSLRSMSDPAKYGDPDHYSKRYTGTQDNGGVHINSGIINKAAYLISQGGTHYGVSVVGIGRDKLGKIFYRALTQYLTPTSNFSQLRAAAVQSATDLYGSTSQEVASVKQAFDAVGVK
Description: as §1, §2, §3

recombinant human MMP-9 = target: T4, recombinant human MMP-9 (Homo sapiens, UniProt P14780); test: Inhibition of MMP-9, fluorescence quenched peptide substrate McaPLGL(Dpa)AR-NH2; type: biochemical; details: for Ki: substrate McaPLGL(Dpa)AR-NH2 4 µM, 30 min pre-incubation at room temperature, calculated from IC50, read-out: Ki ± s.d. MMP-9; for effect of 100 μM compound on MMP-9 activity: pre-incubation 0-45 min
T4 construct: made in house; host or cells: Sf9 insect cells
T4 sequence (P14780 107-707 limits assumed): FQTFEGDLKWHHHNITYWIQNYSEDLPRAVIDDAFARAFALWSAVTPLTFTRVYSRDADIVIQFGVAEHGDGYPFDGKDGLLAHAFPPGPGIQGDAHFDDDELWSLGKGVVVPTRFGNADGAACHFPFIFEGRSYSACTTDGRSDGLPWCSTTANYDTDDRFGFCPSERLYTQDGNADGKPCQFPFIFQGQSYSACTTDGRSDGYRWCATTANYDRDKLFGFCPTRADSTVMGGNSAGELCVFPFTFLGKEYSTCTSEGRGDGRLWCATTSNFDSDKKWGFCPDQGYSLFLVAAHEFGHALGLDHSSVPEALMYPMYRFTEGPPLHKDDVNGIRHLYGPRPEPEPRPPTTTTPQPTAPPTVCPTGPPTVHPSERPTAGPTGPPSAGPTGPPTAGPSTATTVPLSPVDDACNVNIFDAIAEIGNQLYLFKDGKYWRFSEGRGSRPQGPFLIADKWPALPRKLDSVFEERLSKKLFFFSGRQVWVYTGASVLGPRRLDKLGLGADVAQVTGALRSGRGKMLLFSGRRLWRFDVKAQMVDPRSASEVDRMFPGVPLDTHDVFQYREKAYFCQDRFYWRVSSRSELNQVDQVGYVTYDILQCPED
Description: The expression and purification of recombinant human full-length proMMP-9 (rpMMP-9) from Sf9 insect cells were performed as described previously. The amount of proMMP-9 was estimated spectrophotometrically at 280 nm using ε280 nm = 114.36 mM^−1 cm^−1 [48]. Activation of the recombinant proMMP-9 was performed with APMA (auto-activation) as described previously. The amount of active MMP-9 was determined by active site titration using galardin also described previously.
as §1, §2, §3

aureolysin (ALN) = target: T5, aureolysin (ALN) (Staphylococcus aureus, UniProt P81177); test: Inhibition of aureolysin (ALN), substrate McaRPPGFSAFK(Dnp)-OH; type: biochemical; details: for effect of 100 μM compound on ALN activity: pre-incubation 0-45 min
T5 construct: purchased BioCentrum Ltd. (Kraków, Poland)
T5 sequence (P81177 209-509): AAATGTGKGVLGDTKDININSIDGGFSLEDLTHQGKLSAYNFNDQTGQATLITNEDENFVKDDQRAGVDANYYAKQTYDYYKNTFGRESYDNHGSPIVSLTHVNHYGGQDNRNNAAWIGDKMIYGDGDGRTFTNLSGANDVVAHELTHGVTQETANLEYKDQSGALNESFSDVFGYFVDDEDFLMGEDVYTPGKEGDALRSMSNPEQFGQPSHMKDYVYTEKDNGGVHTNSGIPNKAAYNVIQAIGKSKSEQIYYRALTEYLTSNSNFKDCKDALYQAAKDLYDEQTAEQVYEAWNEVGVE
Description: as §1, §2, §3

VIM-2 = system: VIM-2; parameters: method as in PMID 32179522; details: cited from earlier work
[3] = cited from earlier work; remark: listed apart in the source
NDM-1 = system: NDM-1; parameters: method as in PMID 32179522; details: cited from earlier work
Gram-negative pathogens = system: Gram-negative pathogens; parameters: method as in PMID 32179522; details: cited from earlier work

c1ccc(CNCc2ccccn2)nc1 [DPA, di(2-pyridinemethyl)amine, reference compound]
effect of 100 μM compound on MMP-14 activity [1]: greatly enhanced | Kd ([2]; read-out: Kd (zinc-binder)): ~10 nM | Ki (pseudolysin (PLN)): 4 ± 1 µM | effect of 100 μM compound on PLN activity (pseudolysin (PLN)): Moderately strong inhibition

NCCc1ccc(NC(=O)CN(CCN(Cc2ccccn2)Cc2ccccn2)Cc2ccccn2)cc1 [Zn45]
Ki [1]: 2.5 ± 0.2 µM | Ki (thermolysin (TLN)): 7 ± 1 µM | Ki (pseudolysin (PLN)): 2.8 ± 0.9 µM

COC(=O)c1ccc(CN(Cc2ccccn2)Cc2ccccn2)nc1 [Zn145]
Ki [1]: 1.5 ± 0.1 µM | Ki (pseudolysin (PLN)): 12 ± 4 µM

O=C(O)c1ccc(CN(Cc2ccccn2)Cc2ccccn2)nc1 [Zn146]
Ki [1]: 3.8 ± 0.3 µM | Ki (pseudolysin (PLN)): 4 ± 1 µM | Ki (recombinant human MMP-9): 21 ± 5 µM | Ki (aureolysin (ALN)): 25 ± 2 µM

CN(C[C@H](O)[C@@H](O)[C@H](O)[C@H](O)CO)C(=O)c1ccc(CN(Cc2ccccn2)Cc2ccccn2)nc1 [Zn148]
inactivation of MBL VIM-2 (VIM-2): irreversible inhibitor | acute toxicity ([3]; female BALB/c mice): limited in vivo toxicity | acute toxicity ([3]; mouse, in vivo): without acute toxicity | Ki [1]: 8.6 ± 0.7 µM | effect of 100 μM compound on TLN activity (thermolysin (TLN)): no or only a limited effect | Kd ([2]; read-out: Kd (zinc)): 0.001 nM | inactivation of MBL NDM-1 (NDM-1): irreversible inhibitor | IC50 (pseudolysin (PLN)): 6.07 ± 0.08 µM | Ki (pseudolysin (PLN)): 5 ± 2 µM | reversal of carbapenem resistance in Gram-negative pathogens (Gram-negative pathogens): reverse carbapenem resistance | effect of 100 μM compound on ALN activity (aureolysin (ALN)): no or only a limited effect

CC(N)C(=O)NC(C)C(=O)NCCc1ccc(NC(=O)c2ccc(CN(Cc3ccccn3)Cc3ccccn3)nc2)cc1 (stereo not shown) [Zn155]
Ki [1]: 2.4 ± 0.2 µM | Ki (pseudolysin (PLN)): 6 ± 2 µM | Ki (recombinant human MMP-9): 26 ± 6 µM | Ki (aureolysin (ALN)): 60 ± 6 µM

O=C(NCCc1ccc(NC(=O)c2ccc(CN(Cc3ccccn3)Cc3ccccn3)nc2)cc1)c1ccc(CN(Cc2ccccn2)Cc2ccccn2)nc1 [Zn175]
Ki (pseudolysin (PLN)): 7 ± 2 µM | Ki (recombinant human MMP-9): 6 ± 2 µM | Ki (aureolysin (ALN)): 14 ± 1 µM

CC(N)C(=O)NC(C)C(=O)N1CCN(C(=O)c2ccc(CN(Cc3ccccn3)Cc3ccccn3)nc2)CC1 (stereo not shown) [Zn177]
Ki [1]: 11.2 ± 0.9 µM | Ki (pseudolysin (PLN)): 11 ± 4 µM | Ki (recombinant human MMP-9): 56 ± 14 µM

COC(=O)c1ccc(CN(Cc2cccs2)Cc2cccs2)s1 [Zn215]
effect of 100 μM compound on MMP-14 activity [1]: weak inhibition or lack of inhibition | effect of 100 μM compound on PLN activity (pseudolysin (PLN)): weak inhibition or lack of inhibition

COC(=O)c1ccc(CN(Cc2cccs2)Cc2cccs2)nc1 [Zn216]
effect of 100 μM compound on MMP-14 activity [1]: weak inhibition or lack of inhibition | effect of 100 μM compound on PLN activity (pseudolysin (PLN)): weak inhibition or lack of inhibition

CN(C[C@H](O)[C@@H](O)[C@H](O)[C@H](O)CO)C(=O)c1ccc(CN(Cc2ccccc2)Cc2ccccc2)nc1 [Zn222]
inactivation of MBL VIM-2 (VIM-2): did not inactivate | effect of 100 μM compound on MMP-14 activity [1]: weaker binding than Zn148; also recorded: binding was prevented | effect of 100 μM compound on TLN activity (thermolysin (TLN)): no effect | Kd ([2]; read-out: Kd (zinc)): 1000 nM | inactivation of MBL NDM-1 (NDM-1): did not inactivate | effect of 100 μM compound on PLN activity (pseudolysin (PLN)): weaker binding than Zn148 | reversal of carbapenem resistance in Gram-negative pathogens (Gram-negative pathogens): lacked the ability to reverse carbapenem resistance | effect of 100 μM compound on MMP-9 activity (recombinant human MMP-9): weaker binding than Zn148 | effect of 100 μM compound on ALN activity (aureolysin (ALN)): no effect

CN(C[C@H](O)[C@@H](O)[C@H](O)[C@H](O)CO)C(=O)c1ccc(CN(Cc2ccccc2)Cc2ccccn2)nc1 [Zn223]
inactivation of MBL VIM-2 (VIM-2): reduced capability to inactivate | effect of 100 μM compound on MMP-14 activity [1]: weaker binding than Zn148; also recorded: binding was prevented | effect of 100 μM compound on TLN activity (thermolysin (TLN)): no effect | Kd ([2]; read-out: Kd (zinc)): 100 nM | inactivation of MBL NDM-1 (NDM-1): reduced capability to inactivate | effect of 100 μM compound on PLN activity (pseudolysin (PLN)): weaker binding than Zn148 | reversal of carbapenem resistance in Gram-negative pathogens (Gram-negative pathogens): lacked the ability to reverse carbapenem resistance | effect of 100 μM compound on MMP-9 activity (recombinant human MMP-9): weaker binding than Zn148 | effect of 100 μM compound on ALN activity (aureolysin (ALN)): no effect

CC(=O)OC[C@@H](OC(C)=O)[C@@H](OC(C)=O)[C@H](OC(C)=O)[C@H](CN(C)C(=O)c1ccc(CN(Cc2ccccn2)Cc2ccccn2)nc1)OC(C)=O [Zn224]
Ki [1]: 4.5 ± 0.4 µM | Ki (pseudolysin (PLN)): 13 ± 4 µM

CCN(C[C@H](O)[C@@H](O)[C@H](O)[C@H](O)CO)C(=O)c1ccc(CN(Cc2ccccn2)Cc2ccccn2)nc1 [Zn225]
Ki [1]: 4.5 ± 0.4 µM | Ki (thermolysin (TLN)): 9 ± 2 µM | Ki (pseudolysin (PLN)): 5 ± 2 µM | Ki (recombinant human MMP-9): 28 ± 7 µM

O=C(NCc1ccc(CN(Cc2ccccn2)Cc2ccccn2)nc1)C1OC(O)C(O)C(O)C1O (stereo not shown) [Zn227]
Ki [1]: 4.8 ± 0.4 µM | Ki (thermolysin (TLN)): 11 ± 2 µM | Ki (pseudolysin (PLN)): 9 ± 3 µM | Ki (recombinant human MMP-9): 77 ± 19 µM

O=C(NC[C@H](O)[C@@H](O)[C@H](O)[C@H](O)CO)c1ccc(CN(Cc2ccccn2)Cc2ccccn2)nc1 [Zn230]
Ki [1]: 3.5 ± 0.3 µM | Ki (thermolysin (TLN)): 12 ± 2 µM | Ki (pseudolysin (PLN)): 1.1 ± 0.3 µM | Ki (recombinant human MMP-9): 22 ± 6 µM | Ki (aureolysin (ALN)): 20 ± 2 µM

O=C(O)c1ccc(CN(CCN(Cc2ccccn2)Cc2ccccn2)Cc2ccc(C(=O)O)cn2)nc1 [Zn239]
Ki [1]: 6.1 ± 0.5 µM | Ki (thermolysin (TLN)): 32 ± 5 µM | Ki (pseudolysin (PLN)): 5 ± 2 µM | Ki (recombinant human MMP-9): 58 ± 14 µM

COC(=O)Cc1ccc(NC(=O)c2ccc(CN(Cc3ccccn3)Cc3ccccn3)nc2)cc1 [Zn244]
Ki [1]: 4 ± 0.3 µM | IC50 (pseudolysin (PLN)): 4.46 ± 0.05 µM | Ki (pseudolysin (PLN)): 4 ± 1 µM | Ki (recombinant human MMP-9): 22 ± 6 µM
